Results on two compounds are retold here after patent publication US6802957B2, “Self-referencing enzyme-based microsensor and method of use” (priority 2001, dated 2004).

For the experiment, the system named is pancreatic HIT cells (β-cell clusters). It counts as cell-based, hamster.

Protocol: For trypsinization and splitting, trypsin-EDTA solution was added to a culture flask and incubated for 30 s while triturating with a transfer pipette. Serum was added to stop the digestive action of trypsin. Supernatant was removed after centrifugation at 1000 rpm for 2 min. Culture medium was added, and cells plated into glass bottom petri dishes (35 mm diameter, Matek, Ashland, Mass.) for incubation and subsequent observation.
Cell clusters, approximating to spheroids, appeared approximately two weeks after splitting. Their size ranged from 70 μm to 300 μm in diameter, depending on the time in culture.
A glucose microsensor was positioned adjacent to the cluster and self-referenced perpendicularly to the contour of the expected glucose gradient. The glucose sensor was self-referenced at 0.2 Hz between 60 and 80 μm (Δr of 20 μm) from the cluster surface to avoid H2O2 boundary artifacts. Flux measurements were done in HEPES-buffered solution containing 118 mM NaCl, 5.4 mM KCl, 2.4 mM CaCl2, 1.2 mM MgSO4, 1.2 mM KH2PO4, and 5 mM NaHCO3. All measurements were made with 5 mM glucose in the medium. To ensure that the apparent glucose signal was due to the glucose gradient and not the oxygen gradient, oxygen was provided by a ˜10 μm pipette located 10 μm from the cell cluster and approximately 50 μm from the glucose sensor to reverse the biological oxygen gradient. […] In situ calibration of the sensor was performed immediately after the flux measurements. Data were only accepted if sensor drift was less than ±5% over the experimental period, which was typically 30 min. All data were reported as means ±SEM unless otherwise mentioned.
The glucose sensor was self-referenced at 0.2 Hz between 60 and 80 μm (Δr of 20 μm) from the cluster surface. The aliquot of FCCP was dropped on the meniscus of the medium to minimize disturbance of the existing glucose gradient. All measurements were performed with 5 mM glucose in the bath.
Glucose metabolism was further studied with rotenone, an inhibitor of NADH-dependent respiration in mitochondria. […]

For `C=C(C)[C@H]1Cc2c(ccc3c2O[C@@H]2COc4cc(OC)c(OC)cc4[C@@H]2C3=O)O1` [Rotenone, rotenone], the “decrease in the level of glucose consumption” value (10 μM rotenone, after 10 min, 5 mM glucose in bath, oxygen source present, four clusters) is on record as 74±5%.

“trifluoromethoxy carbonylcyanide phenylhydrazine [FCCP]”: the “glucose flux relative to the basal condition” value is given as 56±6 % of the basal condition and the “initial increase in glucose flux” value is listed as 93±16%.
